Data from patent publication US3985740A, “7-[D-(α-amino-α-phenyl-, 2-thienyl- and 3-thienylacetamido)]-3-(5-methylthiazol-2-yl)carbonylthiomethyl-3-cephem -4-carboxylic acids” (Bristol-Myers Company, priority 1974, dated 1976).
Values after ≈ are worked out from the molar mass of the structure shown. Where two headings read alike, the source gives them in different places.

Assays:
D. pneumoniae A9585 = assay: M.I.C. by tube dilution; assay type: cell-based; settings: Streptococcus pneumoniae, D. pneumoniae + 5% serum, 50% Nutrient Broth - 45% Antibiotic Assay Broth, overnight 37° C.
Str. pyogenes A9604 = assay: M.I.C. by tube dilution; assay type: cell-based; settings: Streptococcus pyogenes, Str. pyogenes + 5% serum, 50% Nutrient Broth - 45% Antibiotic Assay Broth, overnight 37° C.
S. aureus Smith A9537 = assay: M.I.C. by tube dilution; assay type: cell-based; settings: Staphylococcus aureus, overnight 37° C., read-out: M.I.C.
[1] = system: S. aureus BX 1633-2 A9606; assay: M.I.C. by tube dilution; assay type: cell-based; settings: Staphylococcus aureus, overnight 37° C., read-out: M.I.C.
[2] = system: S. aureus methicillin-resistant A15097; assay: M.I.C. by tube dilution; assay type: cell-based; settings: Staphylococcus aureus, at 10^-^3 dilution, overnight 37° C.
S. aureus A9748 = assay: M.I.C. by tube dilution; assay type: cell-based; settings: Staphylococcus aureus, overnight 37° C., read-out: M.I.C.
Sal. enteritidis A9531 = assay: M.I.C. by tube dilution; assay type: cell-based; settings: Salmonella enterica, ENTERITIDIS; at 10^-^4 dilution; overnight 37° C.; read-out: M.I.C.
E. coli Juhl A15119 = assay: M.I.C. by tube dilution; assay type: cell-based; settings: Escherichia coli, JUHLA15119
E. coli A9675 = assay: M.I.C. by tube dilution; assay type: cell-based; settings: Escherichia coli, A9675; at 10^-^4 dilution; overnight 37° C.; read-out: M.I.C.
K. pneumoniae A9977 = assay: M.I.C. by tube dilution; assay type: cell-based; settings: Klebsiella pneumoniae, A9977; at 10^-^4 dilution; overnight 37° C.; read-out: M.I.C.
K. pneumoniae A15130 = assay: M.I.C. by tube dilution; assay type: cell-based; settings: Klebsiella pneumoniae, A15130, at 10^-^4 dilution, overnight 37° C.
Pr. mirabilis A9900 = assay: M.I.C. by tube dilution; assay type: cell-based; settings: Proteus mirabilis, A9900; at 10^-^4 dilution; overnight 37° C.; read-out: M.I.C.
Pr. morganii A15153 = assay: M.I.C. by tube dilution; assay type: cell-based; settings: Morganella morganii
Ps. aeruginosa A9843A = assay: M.I.C. by tube dilution; assay type: cell-based; settings: Pseudomonas aeruginosa
Ser. marcescens A20019 = assay: M.I.C. by tube dilution; assay type: cell-based; settings: Serratia marcescens
[3] = Blood levels in the mouse after oral administration; assay type: in vivo; settings: for concentration at 0.5 h / concentration at 1 h / concentration at 2 h / concentration at 3.5 h: blood, 100 mg/kg, read-out: Blood Level; for concentration at 0.5 h / concentration at 1 h / concentration at 2 h / concentration at 3.5 h / Blood Level: mouse, oral, 100 mgm./kg.; for concentration at 0.5 h / Blood Level: 0.5 hrs. after administration; for concentration at 1 h: 1 hr. after administration; for concentration at 2 h: 2 hrs. after administration; for concentration at 3.5 h: 3.5 hrs. after administration; for oral absorption: in words
Description: Blood levels in the mouse after oral administration were
determined with the following results:

[4] = system: certain important pathogenic organisms; assay: In vitro activity in the primary screening tests (overall); assay type: cell-based; settings: in words
Source text: This combination of good oral absorption and high antibacterial activity in a cephalosporin while highly desirable is quite uncommon in compounds reported to date. […] To illustrate the unpredictability of oral absorption and antibacterial activity in a closely related series of cephalosporin compounds, Tables 1-8 below compare in vitro activities and oral absorption as tested in the mouse of the compounds of the formula ##SPC12##

[5] = SMITHA9537, + 50% serum, at 10^-^4 dilution
[6] = BX16332A9606, at 10^-^2 dilution
[7] = BX16332A9606, at 10^-^3 dilution
[8] = at 10^-^4 dilution, overnight 37° C., read-out: M.I.C.

| Compound | MIC (D. pneumoniae A9585) | MIC (Str. pyogenes A9604) | MIC (S. aureus Smith A9537; [5]) | MIC (S. aureus Smith A9537; SMITHA9537, at 10^-^4 dilution) | MIC [1, 6] | MIC [1, 7] | MIC [2] | MIC (S. aureus A9748; A9748, at 10^-^2 dilution) | MIC (S. aureus A9748; A9748, at 10^-^3 dilution) | MIC (Sal. enteritidis A9531) | MIC (E. coli A9675) | MIC (K. pneumoniae A9977) | MIC (K. pneumoniae A15130; read-out: M.I.C.) | MIC (Pr. mirabilis A9900) | MIC (Ps. aeruginosa A9843A) | MIC (Ser. marcescens A20019) | concentration at 0.5 h [3] | concentration at 1 h [3] | concentration at 2 h [3] | concentration at 3.5 h [3] | also measured |
| --- | --- | --- | --- | --- | --- | --- | --- | --- | --- | --- | --- | --- | --- | --- | --- | --- | --- | --- | --- | --- | --- |
| N[C@@H](C(=O)NC1C(=O)N2C(C(=O)O)=C(CSC(=O)c3nccs3)CS[C@H]12)c1ccccc1 (stereo partly drawn) [Compound 567, 7-[D-(-)-α-Aminophenylacetamido]-3-(thiazol-2-yl)carbonylthiomethyl-3-cephem-4-carboxylic acid] | 0.04 µg/mL | 0.04 µg/mL | 8 µg/mL | 0.3 µg/mL (≈ 0.612 µM) | 2 µg/mL (≈ 4.08 µM) | 0.6 µg/mL (≈ 1.22 µM) | 4 µg/mL (≈ 8.15 µM) | 16 µg/mL (≈ 32.6 µM) | 4 µg/mL (≈ 8.15 µM) | 0.08 µg/mL (≈ 0.163 µM) | 4 µg/mL (≈ 8.15 µM) | 2 µg/mL (≈ 4.08 µM) | 8 µg/mL (≈ 16.3 µM) | 2 µg/mL (≈ 4.08 µM) | > 125 µg/mL | 125 µg/mL (≈ 255 µM) | 16000 ng/mL | 14100 ng/mL | 3400 ng/mL | < 400 ng/mL | MIC (E. coli Juhl A15119): 1 µg/mL (≈ 2.04 µM); MIC (Pr. morganii A15153; [8]): 63 µg/mL (≈ 128 µM); oral absorption [3]: good oral absorption properties; activity relative to cephalexin [4]: excellent activity relative to cephalexin |
| Cc1cnc(C(=O)SCC2=C(C(=O)O)N3C(=O)C(NC(=O)[C@H](N)c4ccccc4)[C@H]3SC2)s1 (stereo partly drawn) [Compound 586, 7-[D-(-)-α-Aminophenylacetamido]-3-(5-methylthiazol-2-yl)carbonylthiomethyl-3-cephem-4-carboxylic acid] | 0.16 µg/mL | 0.3 µg/mL | > 63 µg/mL | 0.3 µg/mL (≈ 0.595 µM) | 4 µg/mL (≈ 7.93 µM) | 0.6 µg/mL (≈ 1.19 µM) | 4 µg/mL (≈ 7.93 µM) | 63 µg/mL (≈ 125 µM) | 8 µg/mL (≈ 15.9 µM) | 0.3 µg/mL (≈ 0.595 µM) | 4 µg/mL (≈ 7.93 µM) | 4 µg/mL (≈ 7.93 µM) | 32 µg/mL (≈ 63.4 µM) | 16 µg/mL (≈ 31.7 µM) | > 125 µg/mL | > 125 µg/mL | 34800 ng/mL | 30700 ng/mL | 13000 ng/mL | 7000 ng/mL | MIC (E. coli Juhl A15119): 2 µg/mL (≈ 3.96 µM); MIC (Pr. morganii A15153; [8]): 63 µg/mL (≈ 125 µM); oral absorption [3]: good oral absorption properties; Blood Level [3]: 34800 ng/mL; activity relative to cephalexin [4]: excellent activity relative to cephalexin |
| N[C@@H](C(=O)NC1C(=O)N2C(C(=O)O)=C(CSC(=O)c3cscn3)CS[C@H]12)c1ccccc1 (stereo partly drawn) [Compound 591, 7-[D-(-)α-aminophenylacetamido]-3-(thiazol-4-yl)carbonylthiomethyl-3-cephem-4-carboxylic acid] | 0.02 µg/mL | 0.02 µg/mL | 8 µg/mL | 0.3 µg/mL (≈ 0.612 µM) | 2 µg/mL (≈ 4.08 µM) | 0.6 µg/mL (≈ 1.22 µM) | 2 µg/mL (≈ 4.08 µM) | 16 µg/mL (≈ 32.6 µM) | 4 µg/mL (≈ 8.15 µM) | 0.16 µg/mL (≈ 0.326 µM) | 4 µg/mL (≈ 8.15 µM) | 1 µg/mL (≈ 2.04 µM) | 8 µg/mL (≈ 16.3 µM) | 1 µg/mL (≈ 2.04 µM) | > 125 µg/mL | 125 µg/mL (≈ 255 µM) | 6500 ng/mL | 7900 ng/mL | 4400 ng/mL | 3200 ng/mL | MIC (E. coli Juhl A15119; [8]): 1 µg/mL (≈ 2.04 µM); MIC (Pr. morganii A15153; [8]): 32 µg/mL (≈ 65.2 µM) |
| N[C@@H](C(=O)NC1C(=O)N2C(C(=O)O)=C(CSC(=O)c3cncs3)CS[C@H]12)c1ccccc1 (stereo partly drawn) [Compound 602, 7-[D-(-)-α-aminophenylacetamido]-3-(thiazol-5-yl)carbonylthiomethyl-3-cephem-4-carboxylic acid] | 0.6 µg/mL | 0.6 µg/mL | > 63 µg/mL | 0.3 µg/mL (≈ 0.612 µM) | 16 µg/mL (≈ 32.6 µM) | 1.3 µg/mL (≈ 2.65 µM) | 4 µg/mL (≈ 8.15 µM) | 63 µg/mL (≈ 128 µM) | 8 µg/mL (≈ 16.3 µM) | 0.3 µg/mL (≈ 0.612 µM) | 16 µg/mL (≈ 32.6 µM) | 16 µg/mL (≈ 32.6 µM) | 32 µg/mL (≈ 65.2 µM) | 16 µg/mL (≈ 32.6 µM) | > 125 µg/mL | > 125 µg/mL | 11700 ng/mL | 17600 ng/mL | 9700 ng/mL | 3300 ng/mL | MIC (E. coli Juhl A15119; [8]): 4 µg/mL (≈ 8.15 µM); MIC (Pr. morganii A15153): 125 µg/mL (≈ 255 µM) |
| Cc1nc(C(=O)SCC2=C(C(=O)O)N3C(=O)C(NC(=O)[C@H](N)c4ccccc4)[C@H]3SC2)cs1 (stereo partly drawn) [Compound 607, 7-[D-α-aminophenylacetamido]-3-(2-methylthiazol-4-yl)carbonylthiomethyl-3-cephem-4-carboxylic acid] | 0.16 µg/mL | 0.16 µg/mL | 63 µg/mL | 0.3 µg/mL (≈ 0.595 µM) | 4 µg/mL (≈ 7.93 µM) | 0.6 µg/mL (≈ 1.19 µM) | 8 µg/mL (≈ 15.9 µM) | 16 µg/mL (≈ 31.7 µM) | 8 µg/mL (≈ 15.9 µM) | 0.6 µg/mL (≈ 1.19 µM) | 16 µg/mL (≈ 31.7 µM) | 16 µg/mL (≈ 31.7 µM) | – | 8 µg/mL (≈ 15.9 µM) | > 125 µg/mL | > 125 µg/mL | 1200 ng/mL | 1400 ng/mL | 1300 ng/mL | 1000 ng/mL | MIC (E. coli Juhl A15119; [8]): 8 µg/mL (≈ 15.9 µM); MIC (K. pneumoniae A15130): 125 µg/mL (≈ 248 µM); MIC (Pr. morganii A15153; [8]): 32 µg/mL (≈ 63.4 µM); Blood Level [3]: 1200 ng/mL |
